Measured values from patent US20190367567A1 (priority 2016, published 2019).
Where a SMILES comes first, the peptide text is derived from it.

What was measured:
[1] = test system: human H1N1 influenza A virus A/Puerto Rico/8/1934 (PR8); conditions: human virus A/Puerto Rico/8/1934 (PR8)
PR8 virus = test system: PR8 virus; parameters: species or system influenza A virus
[2] = biological target: H1 HA of A/Puerto Rico/8/1934 H1N1 influenza virus (influenza A virus A/Puerto Rico/8/1934 H1N1) (UniProt P03452); assay: cell-based or functional assay

CC[C@H](C)[C@H](NC(=O)CNC(=O)[C@H](CC(C)C)NC(=O)CNC(=O)[C@H](C)NC(=O)CNC(=O)[C@H](CCCCN)NC(=O)[C@H](C)NC(=O)[C@@H](NC(=O)CNC(=O)[C@@H](NC(=O)[C@H](C)NC(=O)[C@@H](NC(=O)[C@H](CC(=O)O)NC(=O)[C@H](CCCCN)NC(=O)[C@H](CC(C)C)NC(=O)[C@H](CCCCN)NC(=O)[C@@H](NC(=O)[C@@H](NC(=O)[C@H](Cc1ccccc1)NC(=O)[C@@H](N)CO)C(C)C)[C@@H](C)O)C(C)C)[C@@H](C)CC)C(C)C)C(=O)N[C@@H](CC(C)C)C(=O)N[C@@H](CCCCN)C(=O)N[C@H](C(=O)N[C@@H](CC(C)C)C(=O)N[C@H](C(=O)N[C@@H](CS)C(=O)N[C@@H](CCCCN)C(=O)N[C@@H](CC(C)C)C(=O)N[C@@H](CC(=O)O)C(=O)N[C@@H](CC(N)=O)C(=O)N[C@@H](CO)C(=O)N[C@@H](CS)C(=O)N[C@@H](C)C(=O)O)[C@@H](C)O)[C@@H](C)O [Peptide 28] (H-SFVTKLKDVAIGVAKGAGLGILKTLTCKLDNSCA-OH)
hemolytic activity (human erythrocytes; at 10 μM): hemolytic activity

CC[C@H](C)[C@H](N)C(=O)N1CCC[C@H]1C(=O)N[C@@H](CC(C)C)C(=O)N[C@@H](CCCNC(=N)N)C(=O)NCC(=O)N[C@@H](C)C(=O)N[C@@H](Cc1ccccc1)C(=O)N[C@H](C(=O)N[C@@H](CC(N)=O)C(=O)NCC(=O)N[C@@H](CCCNC(=N)N)C(=O)N[C@@H](Cc1c[nH]c2ccccc12)C(=O)N[C@@H](CC(=O)O)C(=O)N[C@@H](CO)C(=O)N[C@@H](CCC(N)=O)C(=O)N[C@@H](CS)C(=O)N[C@@H](Cc1c[nH]cn1)C(=O)N[C@@H](CCCNC(=N)N)C(=O)N[C@@H](Cc1ccccc1)C(=O)N[C@@H](CO)C(=O)N[C@@H](CC(N)=O)C(=O)NCC(=O)N[C@@H](C)C(=O)N[C@H](C(=O)N[C@@H](C)C(=O)N[C@@H](CS)C(=O)N[C@@H](C)C(=O)O)[C@@H](C)CC)[C@@H](C)CC [Urumin] (H-IPLRGAFINGRWDSQCHRFSNGAIACA-OH)
IC50 [1]: 3.8 µM | concentration reaching a 20% level of toxicity (human erythrocytes): 1430 µM | toxicity to human erythrocytes (hemolysis) (human erythrocytes): no toxicity

OVA257-264 peptide [OVA peptide]
integrity of virus particles by electron microscopy (PR8 virus): appear intact

Urumin (peptide)
IC50, plaque assay against PR8 virus [2]: 3.8 µM
